# Results from patent US20190125702A1, “Methods and Compositions for the Treatment of Demyelinating Disorders” (Vitality Biopharma, Inc., priority 2016, published 2019).
# Entries after “also recorded” stand apart in the source; their conditions may differ.
# What was measured:
# [1] = tested on: E18 rat embryonic cortical co-cultures (MBP fiber length/Olig2 nuclei); assay: embryonic cortical cell co-culture myelination assay; type: cell-based; settings: for EC50: Rattus norvegicus, 192 h, cortical myelination assay, eight days treatment, N >= 2; for myelination in the cortical myelination assay (in words): compound added DIV5, eight days, live axons
# Description: Embryonic Cortical Culture Methods: The dissection of E18 rat (Charles River, Wilmington, Mass., USA) cortex is similar to that described previously, [32], [33] with some modifications. Briefly whole cortices from three embryos were collected in a petri dish containing HBSS. After carefully removing the meninges, the tissue was divided into cortical hemispheres, dissected and the non-cortical structures were removed. Cortical tissue was then digested in 7 U/ml papain dissolved in HBSS with 500 U/ml DNase I, and incubated for 30 minutes at 35° C. The enzymatic reaction was terminated with DMEM containing 10% FBS. The tissue was allowed to settle, supernatant was removed and tissue was triturated with a flame-polished glass Pasteur pipette in DMEM/10% FBS, 250 U/ml DNAse I until the tissue was completely dispersed. The dissociated cell suspension was centrifuged at 200×g for 5 minutes and supernatant replaced with plating medium (NB medium with 1× N21 supplement and 2 mM L-glutamine and 1% penicillin-streptomycin). […] Isolated cells were seeded onto 96-well plates pre-coated with poly-D-lysine (10 μg/m1) and laminin (2 ␣/ml) at a density of 20,000 cells/well ([…]). Neurons were allowed to adhere, recover, mature and extend axons for three days. On the fourth day, the plating medium was diluted with an equivolume of myelination medium (MyM), as described in Watkins et al., 2008 [9] with minor modifications (see results). The following day, two-thirds of the medium was replaced with fresh MyM and test compound. The day after establishing the primary culture was defined as day 1 in vitro (DIV1).
# Immunofluorescence Staining and Imaging: At the experimental end point, medium was removed leaving 50 μl/well using an ELX405 microplate washer (BioTek, Winooski, Vt., USA). Cells were then fixed for 14 min with paraformaldehyde solution to a final concentration of 4%. Following fixation, plates were washed with 1 ml PBS leaving 50 μl/well using the microplate washer. Cells were then blocked in blocking buffer (10% normal goat serum, 0.1% Triton X-100, antibody buffer (150 mM NaCl, 50 mM Tris Base, 1% BSA, 100 mM L-lysine, 0.004% sodium azide, pH 7.4), and stained with mouse anti-rat MBP antibody and anti-rabbit Olig2 diluted in blocking buffer overnight at 4° C. The cells were washed and incubated with secondary antibodies, and DAPI, 0.3 μM for 1 h at room temperature. After a final wash, 100 μl of PBS was added to each well and plates imaged. Images were captured with a Nikon Eclipse TE-2000-U microscope, Zyla cMOS megapixel camera (ANDOR Technology, Belfast, UK), fitted with an automated stage controlled by NIS Elements AR software 4.0 (Melville, N.Y., USA). An air 10× lens was used to capture four images per well with 16 bit resolution, 2560×2160 pixels. Images for each assay run were captured using identical camera settings. Images were exported as TIFF files for analysis and quantification.
# Image Quantification: TIFF files were analyzed using a custom algorithm created with IN Cell Investigator Developer Toolbox (GE Health Sciences, Piscataway, N.J., USA). For each well, four images were analyzed and the data from the duplicate well combined and averaged (total of eight images per test condition). The extent of OL differentiation was defined by the total threshold-selected area of MBP staining×MBP fluorescence intensity in this area divided by the total number of OLs (identified by Olig2 nuclear staining). We referred to this as the “MBP score” or “OL differentiation”. Earlier publications have characterized in vitro myelination as contiguous segments of MBP staining co-localizing with axons, representing the contact and ensheathment of axons with the myelin membrane generated by OLs.
# [2] = tested on: purified OPCs; settings: lead compounds of published studies [2],[3],[4]; cited from earlier work
# [3] = tested on: purified OPCs from P7 Sprague-Dawley rat pups; assay: acute oligodendrocyte differentiation assay with acutely purified OPCs; type: cell-based; settings: 4 days culture, MBP staining intensity
# Procedure: Acute Oligodendrocyte Differentiation Assay: OPCs from P7 Sprague-Dawley rat pups were purified by immunopanning and cultured as described. OPCs were plated at 5000 cells/well into pDL-Laminin coated 96-well TC plate wells and centrifuged at 200×g to facilitate cell attachment, survival, and assure even distribution of OPCs. Plated OPCs were pre-incubated for 1-2 hours at 37° C. in 10% CO2 incubator, followed by addition of test compounds in quadruplicate. Controls were added in eight replicate wells, negative control=0.1% DMSO final concentration; positive control=40 ng/ml T3. The day of OPC plating was considered DIV0. On DIV4, cells were fixed, immunostained, and imaged as described below. Minor modifications include blocking cells with 10% normal goat serum (NGS)/0.4% Triton X-100 and staining overnight at 4° C. with rat anti-MBP antibodies diluted in 10% NGS/0.08% Triton X-100. OL differentiation was quantified by IN Cell Developer Toolbox image analysis software which calculated the MBP staining intensity of two images per well. The extent of OL differentiation was defined by the total threshold-selected area of MBP staining×MBP fluorescence intensity in this area divided by the total number of OLs (identified by DAPI nuclear staining).
Compound,EC50 [1],myelination in the cortical myelination assay (in words) [1],other results
C[C@H]1[C@H](OC(=O)CCC(=O)O)O[C@@H]2O[C@@]3(C)CC[C@H]4[C@H](C)CC[C@@H]1[C@@]24OO3 [Artesunate],3.3 µM,–,–
O=S(=O)(NC1CCC(c2cc(F)ccc2F)(S(=O)(=O)c2ccc(Cl)cc2)CC1)C(F)(F)F (stereo not shown) [MRK 560],0.082 µM,–,–
C[C@H]1C[C@H]2[C@@H]3CCC4=CC(=O)C=C[C@]4(C)[C@@]3(F)[C@@H](O)C[C@]2(C)[C@@]1(O)C(=O)CCl [clobetasol],–,no effect on myelination,OL differentiation in cultures of purified OPCs (published screens) [2]: facilitate OL differentiation
Clc1ccc(COC(Cn2ccnc2)c2ccc(Cl)cc2Cl)c(Cl)c1 (stereo not shown) [miconazole],–,no effect on myelination,OL differentiation in cultures of purified OPCs (published screens) [2]: facilitate OL differentiation
"NC(=O)[C@@H](CCC(F)(F)F)N(Cc1ccc(-c2ncon2)cc1F)S(=O)(=O)c1ccc(Cl)cc1 [BMS 708, 163]",0.067 µM,–,–
"C[C@H](NC(=O)Cc1cc(F)cc(F)c1)C(=O)N[C@H](C(=O)OC(C)(C)C)c1ccccc1 [DAPT, N-[N-(3,5-Difluorophenacetyl)-L-alanyl]-S-phenylglycine t-butyl ester]",–,significant dose-dependent increases in myelination,"reduction of the number of Olig2+ cells [1]: ~50%; DAPT/DMSO myelination ratio ([1]; 5 days NB/N21 and 8 days MyM plus test compound): 7.7; fiber/MBP score, typically observed ([1]; DAPT treated cultures): > 1.5; promotion of myelination, fold over DMSO ([1]; cultures without exogenously added OPCs): 1.76 fold over DMSO; average DAPT/DMSO Fiber/MBP ratio ([1]; entire NCC library screen, plate controls): 1.61"
C[C@H]1O[C@@H](O[C@H]2[C@@H](O)C[C@H](O[C@H]3[C@@H](O)C[C@H](O[C@H]4CC[C@@]5(C)[C@H](CC[C@@H]6[C@@H]5C[C@@H](O)[C@]5(C)[C@@H](C7=CC(=O)OC7)CC[C@]65O)C4)O[C@@H]3C)O[C@@H]2C)C[C@H](O)[C@@H]1O [Digoxin],11.3 µM,–,–
CC(=O)O[C@@]12CO[C@@H]1C[C@H](O)[C@@]1(C)C(=O)[C@H](O)C3=C(C)[C@@H](OC(=O)[C@H](O)[C@@H](NC(=O)OC(C)(C)C)c4ccccc4)C[C@@](O)([C@@H](OC(=O)c4ccccc4)[C@H]21)C3(C)C [Docetaxel],0.1 µM,–,–
NC(=O)N1c2ccccc2CC(=O)c2ccccc21 [Oxcarbazepine],14.7 µM,–,–
CN1[C@@H]2CC[C@H]1C[C@@H](OC(c1ccccc1)c1ccccc1)C2 [benztropine],–,little to no activity; also recorded: no effect on myelination; also recorded: did not promote myelination,OL differentiation of purified OPCs (in words) [3]: facilitate OL differentiation; also recorded: significant OL differentiation; OL differentiation in cultures of purified OPCs (published screens) [2]: facilitate OL differentiation
CN1CCC[C@@H]1CCO[C@](C)(c1ccccc1)c1ccc(Cl)cc1 [clemastine],–,little to no activity; also recorded: no effect on myelination; also recorded: did not promote myelination,OL differentiation of purified OPCs (in words) [3]: facilitate OL differentiation; also recorded: significant OL differentiation; OL differentiation in cultures of purified OPCs (published screens) [2]: facilitate OL differentiation
CN(Cc1cnc2nc(N)nc(N)c2n1)c1ccc(C(=O)N[C@@H](CCC(=O)O)C(=O)O)cc1 [Methotrexate],0.1 µM,–,Olig2+ nuclei expression (in words) ([1]; NCC library screen): very low overall Olig2+ nuclei expression
COc1cc(CNC(=O)CCCC/C=C\C(C)C)ccc1O [Zu-capsaicin],4.7 µM,–,–
N=C(N)NC(=O)c1nc(Cl)c(N)nc1N [Amiloride],8.9 µM,–,–
O=c1[nH]c(=O)n(C2CCCO2)cc1F (stereo not shown) [Tegafur],2.7 µM,–,–
COc1ccc(CC2c3cc(OC)c(OC)cc3CC[N+]2(C)CCC(=O)OCCCCCOC(=O)CC[N+]2(C)CCc3cc(OC)c(OC)cc3C2Cc2ccc(OC)c(OC)c2)cc1OC (stereo not shown) [Atracurium Besylate],5.3 µM,–,–
